Measurements as given in the supplement of paper PMC5579334.

How the values were obtained:
[1] = test system: HS-PSS; assay: relative IC50 (inflection point of fitted dose-response curve, CellTox-Green cytotoxicity, 72 h; top asymptote may be below 50%); higher = less potent
Outline: (§1)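 MPNST cell lines and primary human Schwann cells were incubated 72 h at 37 °C in 384-well plates holding five 10-fold compound dilutions. CellTox-Green was added before seeding at a final 1:1000 dilution and reported fluorescence from DNA released by disrupted cells. Signals were scaled to vehicle and positive-control wells, and cultures failing plate quality control were dropped. Drug sensitivity score and relative IC50 come from four-parameter logistic fits, with IC50 censored at the top concentration.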

[2] = test system: HS-Sch-2; assay: relative IC50 (inflection point of fitted dose-response curve, CellTiter-Glo viability, 72 h; top asymptote may be below 50% inhibition); higher = less potent
Outline: (§2)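 MPNST cell lines and primary human Schwann cells (750–1000 cells per well) went into 384-well plates preprinted with each compound at five concentrations in 10-fold steps. Plates were incubated 72 h at 37 °C, 5% CO2. Viability was read as CellTiter-Glo ATP luminescence, scaled between vehicle and positive-control wells, with duplicates averaged where present. Percent inhibition is at the top concentration; drug sensitivity score and relative IC50 (censored at top concentration) come from four-parameter logistic fits.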

[3] = test system: YST-1; assay: as above
Outline: as §2

[4] = test system: HS-PSS; assay: drug sensitivity score (DSS, CellTiter-Glo viability, 72 h) (DSS (dimensionless)); higher = more sensitive; extreme values may be limits of the assay
Outline: as §2

[5] = test system: HS-Sch-2; assay: as above
Outline: as §2

[6] = test system: YST-1; assay: as above
Outline: as §2

[7] = test system: HS-PSS; assay: drug sensitivity score (DSS, CellTox-Green cytotoxicity, 72 h) (DSS (dimensionless)); higher = more cytotoxic; extreme values may be limits of the assay
Outline: as §1

[8] = test system: HS-PSS; assay: % inhibition of CellTiter-Glo viability at highest tested concentration (72 h), relative to DMSO and benzethonium chloride controls; higher = more inhibition
Outline: as §2

[9] = test system: HS-Sch-2; assay: as above
Outline: as §2

[10] = test system: YST-1; assay: as above
Outline: as §2

Compound	relative IC50 [1] [nM]	relative IC50 [2] [nM]	relative IC50 [3] [nM]	further results
CC[C@H](NC(=O)[C@H](C)NC)C(=O)N1C[C@@H](O)C[C@H]1Cc1c(-c2[nH]c3cc(F)ccc3c2C[C@@H]2C[C@H](O)CN2C(=O)[C@H](CC)NC(=O)[C@H](C)NC)[nH]c2cc(F)ccc12 [Birinapant]	> 1000	> 1000	> 1000	
CCN1CCN(Cc2ccc(Nc3ncc(F)c(-c4cc(F)c5nc(C)n(C(C)C)c5c4)n3)nc2)CC1 [Abemaciclib]	> 2500	1010	27.5	
O=C(NOCC1CC1)c1ccc(F)c(F)c1Nc1ccc(I)cc1Cl	> 10000	1630		
O=C(NC[C@H](O)CN1CCc2ccccc2C1)c1cc(NC2COC2)ncn1	> 10000			
Cc1cccc(-c2[nH]c(CNc3ccccc3F)nc2-c2ccc3ncnn3c2)n1 [TEW-7197]	> 2500		> 2500	
Nc1nc(Nc2ccc3c(c2)CC[C@@H](N2CCCC2)CC3)nn1-c1cc2c(nn1)-c1ccccc1CCC2 [BGB324]	> 10000	570	2140	
C[C@@H]1CN(Cc2ccc(F)cc2)[C@@H](C)CN1C(=O)c1cc2c(C(=O)C(=O)N(C)C)cn(C)c2cc1Cl [Talmapimod]	> 10000	> 10000	283	
CS(=O)(=O)c1ccc(-c2cnc(N)c(C(=O)Nc3ccccc3)n2)cc1 [VE-821]	> 10000	> 10000	> 10000	
Cc1[nH]c(/C=C2\C(=O)Nc3ccccc32)c(C)c1CCC(=O)O [Orantinib]	205	> 10000		
COC(=O)N[C@@H](C)CNc1nccc(-c2cn(C(C)C)nc2-c2cc(Cl)cc(NS(C)(=O)=O)c2F)n1 [Encorafenib]	> 1000		> 1000	
CCN1CCN(Cc2ccc(-c3cc4c(N[C@H](C)c5ccccc5)ncnc4[nH]3)cc2)CC1 [NVP-AEE788]	> 2500	> 2500		
Cc1ncc(Cl)cc1NCc1ccc(C(=O)N[C@@H](CC2CCCC2)C(=O)NC2CC2)s1	> 5000		103	
O=c1ncn2nc(Sc3ccc(F)cc3F)ccc2c1-c1c(Cl)cccc1Cl [VX 745]	> 10000		778	
COc1cccc2c1c(O)c(C(=O)N(C)c1ccc(C(F)(F)F)cc1)c(=O)n2C [Tasquinimod]	> 10000	> 10000		
Cn1cc(-c2ccc3nnc(C(F)(F)c4ccc5ncccc5c4)n3n2)cn1	> 10000			
COc1ccc(Cl)c(Nc2nc3ccccc3nc2NS(=O)(=O)c2cccc(NC(=O)C(C)(C)N)c2)c1 [Pilaralisib]	> 2500		674	
O=C(Nc1cccc(C(F)(F)F)c1)Nc1cc(S(=O)(=O)NC2CC2)ccc1-c1ccsc1 [AGI-6780]	> 10000	1400		
CN1CCN(C2CCN(C(=O)Nc3cc(Oc4ccc(NC(=O)C5(C(=O)Nc6ccc(F)cc6)CC5)c(F)c4)ccn3)CC2)CC1 [Golvatinib]	> 2500			
COc1cc(C(=O)NC2CCN(C)CC2)c(F)cc1Nc1ncc2c(n1)N(C1CCCC1)CC(F)(F)C(=O)N2C [TAK-960]	> 2500		> 2500	
Cc1ccccc1C(C(=O)NC1CCCCC1)N(C(=O)Cn1ccnc1C)c1cccc(F)c1 (centres undefined) [AGI-5198]	> 10000		> 10000	
O=C(Nc1nc2ccccc2n1CCN1CCOCC1)c1cccc([N+](=O)[O-])c1 [IRAK1/4 inhibitor] (max concentration tested 25000 nM)				drug sensitivity score [4]: 0; drug sensitivity score [5]: 0; drug sensitivity score [6]: 0; drug sensitivity score [7]: 0; % inhibition [8]: 3.76%; % inhibition [9]: -2.86%; % inhibition [10]: 6.78%
CC(C)Oc1cc(Nc2nc(N[C@@H](C)c3ccc(F)cn3)ncc2Cl)n[nH]1 [AZ-23]			162	
CCn1c(-c2nonc2N)nc2c(C#CC(C)(C)O)ncc(OC[C@H]3CCCNC3)c21 (max concentration tested 10000 nM)				drug sensitivity score [4]: 0; drug sensitivity score [5]: 3.35; drug sensitivity score [6]: 0; drug sensitivity score [7]: 0; % inhibition [8]: 3.9%; % inhibition [9]: 39%; % inhibition [10]: -24.9%
CCc1nc(-c2cccc(C)c2)c(-c2ccnc(NC(=O)c3ccccc3)c2)s1 [TAK-715] (max concentration tested 10000 nM)				drug sensitivity score [4]: 0.81; drug sensitivity score [5]: 2.55; drug sensitivity score [6]: 2.91; drug sensitivity score [7]: 0; % inhibition [8]: 19.3%; % inhibition [9]: 27.9%; % inhibition [10]: 24%
